In assay [1] the test system is LP40-V8 pseudovirus (HIV-1 NL4-3 Env mutant). It is filed as cell-based. Particulars: for IC50: LP40-V8 (Env selected at LP-40 8 µM), TZM-bl cells, 48 h, luciferase, mean ± SD, triplicate, repeated three times. The method, then: (§1) To simulate the sequence changes of viral resistance genes under different drug concentration pressures, we constructed the Env genes under different drug concentration pressures in the PCDNA3.1 vector and obtained a series of mutations. […] T20-V 6~12, T20-V 13~14, and T 20-V 15~18 were constructed at concentrations of 200 µM (P21), 400 µM (P24), and 2000 µM (P32), respectively. Similarly, the LP-40 pressure concentrations were 0.3 µM, 8 µM, 20 µM, and 200 µM, respectively, and the constructs were numbered LP40-V 1~5, LP40-V 6~8, LP40-V 9~11, and LP40-V 12~15. Resistance mutations will cause varying levels of damage to the function of the pseudoviral envelope proteins. Here, we explored how serial mutations affect the function of viral envelope proteins. Based on this problem, we performed a single round of quantitative P24-infection experiments, packaging the pseudovirus with a previously constructed series of mutant plasmids. We compared the invasion ability of the HIV-1 wild-type and mutant pseudoviruses toward target cells under the same P24 content (using the invasion capacity of each subtype as 100%).
(§2) The infectivity of HIV Env mutants and the inhibitory activities of membrane fusion inhibitors on mutants in TZM-bl cells were measured using a single-cycle infection assay as described previously. Briefly, the HIV pseudovirus was packed using an Env-coding plasmid, and pSG3ΔEnv was co-transfected into HEK293T cells. pSG3ΔEnv encodes an Env-defective, luciferase-expressing HIV-1 genome. After the pseudoviruses were harvested and filtrated, the amount of pseudoviruses was fixed via P24 antigen, and their infectivity was determined in TZM-bl cells. In order to measure the inhibitory activities of the inhibitors, inhibitors diluted serially 3-fold were mixed with an equal volume of pseudoviruses, and then 100 µL 1 × 10^5/mL TZM-bl cells were added to the mixture and incubated at 37 °C with 5% CO2 for 48 h. After that, TZM-bl cells were lysed using reporter lysis buffer, and IC50 values were calculated according to luciferase activity measured by luciferase assay reagents and a luminescence counter (Promega, Madison, WI, USA).

Assay [2] concerns T20-V1 pseudovirus (HIV-1 NL4-3 Env mutant). It is filed as cell-based. Particulars: for IC50: T20-V1 (Env selected at T20 12 µM, P9), TZM-bl cells, 48 h, luciferase, mean ± SD, triplicate, repeated three times. As to the method: as §1, §2
The subject of assay [3] is T20-V14 pseudovirus (HIV-1 NL4-3 Env mutant). It is filed as cell-based. Particulars: for IC50: T20-V14 (Env selected at T20 400 µM, P24), TZM-bl cells, 48 h, luciferase, mean ± SD, triplicate, repeated three times. The method, then: as §1, §2
The subject of assay [4] is T20-V6 pseudovirus (HIV-1 NL4-3 Env mutant). It is filed as cell-based. Particulars: for IC50: T20-V6 (Env selected at T20 200 µM, P21), TZM-bl cells, 48 h, luciferase, mean ± SD, triplicate, repeated three times. As to the method: as §1, §2
For assay [5], the system named is T20-V13 pseudovirus (HIV-1 NL4-3 Env mutant). It counts as cell-based. Particulars: for IC50: T20-V13 (Env selected at T20 400 µM, P24), TZM-bl cells, 48 h, luciferase, mean ± SD, triplicate, repeated three times. As to the method:
as §1, §2

For assay [6], the system named is T20-V10 pseudovirus (HIV-1 NL4-3 Env mutant). It counts as cell-based. Particulars: for IC50: T20-V10 (Env selected at T20 200 µM, P21), TZM-bl cells, 48 h, luciferase, mean ± SD, triplicate, repeated three times. As to the method: as §1, §2
The subject of assay [7] is LP40-V14 pseudovirus (HIV-1 NL4-3 Env mutant). It is filed as cell-based. Particulars: for IC50: LP40-V14 (Env selected at LP-40 200 µM), TZM-bl cells, 48 h, luciferase, mean ± SD, triplicate, repeated three times. As to the method: as §1, §2
The subject of assay [8] is HIV-1 NL4-3 pseudovirus (WT). It counts as cell-based. Particulars: for IC50: WT NL4-3, TZM-bl cells, 48 h, luciferase, triplicate, repeated three times. As to the method: as §2
Assay [9] relates to LP40-V2 pseudovirus (HIV-1 NL4-3 Env mutant). It is filed as cell-based. As to the method:
as §2

Assay [10] concerns HIV-1 NL4-3 gp41 I69V pseudovirus. It counts as cell-based. Particulars: for Fold change in IC50: I69V relative to WT NL4-3.
A further assay deals with NL4-3D36G virus. Particulars: single infection inhibition experiment; cited from earlier work. As to the method: However, it requires frequent and high doses (90 mg, twice a day), and resistance is easily acquired. The TRM of the T20 carboxy-terminal, also known as the MPER (membrane proximal external region), is rich in […] sequences ([…]). Therefore, it is highly hydrophobic (Figure 1).

Read-outs that look alike come from different tables or passages of the source. Where a SMILES comes first, the peptide text is derived from it. The star is where a group is joined. Palmitoyl = CCCCCCCCCCCCCCCC(=O)* Bounds are passed on as bounds.

The IC50 is the midpoint of a concentration-inhibition curve. Low values mean greater potency, high ones weaker potency. `CCCCCCCCCCCCCCCC(=O)NCCCC[C@H](NC(=O)[C@H](CC(=O)O)NC(=O)[C@H](CC(C)C)NC(=O)[C@H](CCC(=O)O)NC(=O)[C@H](CC(C)C)NC(=O)[C@H](CC(C)C)NC(=O)[C@H](CCC(=O)O)NC(=O)[C@H](CCC(N)=O)NC(=O)[C@H](CCC(=O)O)NC(=O)[C@H](CC(N)=O)NC(=O)[C@H](CCCCN)NC(=O)[C@H](CCC(=O)O)NC(=O)[C@H](CCC(N)=O)NC(=O)[C@H](CCC(N)=O)NC(=O)[C@H](CC(N)=O)NC(=O)[C@H](CCC(N)=O)NC(=O)[C@H](CO)NC(=O)[C@H](CCC(=O)O)NC(=O)[C@H](CCC(=O)O)NC(=O)[C@@H](NC(=O)[C@H](CC(C)C)NC(=O)[C@H](CO)NC(=O)[C@H](Cc1c[nH]cn1)NC(=O)[C@@H](NC(=O)[C@H](CC(C)C)NC(=O)[C@H](CO)NC(=O)[C@@H](NC(=O)[C@H](Cc1ccc(O)cc1)NC(C)=O)[C@@H](C)O)[C@@H](C)CC)[C@@H](C)CC)C(N)=O` [LP-40] (Ac-YTSLIHSLIEESQNQQEKNEQELLELDK(Palmitoyl)-NH2): the IC50 came to 2880 ± 1070 nM in [1]; 40.1 ± 8.62 nM in [2]; 2900 ± 85.1 nM in assay [3]; 3510 ± 631 nM in assay [4]; 3190 ± 207 nM in assay [5]; 6080 ± 1170 nM in assay [6]. Besides, the IC50 in assay [7] was above 6250 nM; in assay [8] (Table 1, mean ± SD), 29.7 ± 4.52 nM; in assay [8] (Table 2, mean ± SD), 31.5 ± 10.4 nM; in [8] (Table 3, means), 27.3 nM; in [9] (LP40-V2 (Env selected at LP-40 0.3 µM), TZM-bl cells, 48 h, luciferase, mean ± SD, triplicate, repeated three times), 374 ± 29.8 nM; in [10] (I69V, Table 2, TZM-bl cells, 48 h, luciferase, mean ± SD, triplicate, repeated three times), 29.4 ± 4.59 nM. The “Fold change in IC50” value in [1] (LP40-V8 relative to WT NL4-3, Table 1) turned out to be 97.17 fold; in assay [2] (T20-V1 relative to WT NL4-3, Table 1), 1.35 fold; in [3] (T20-V14 relative to WT NL4-3, Table 1) it was 97.57 fold; in assay [4] (T20-V6 relative to WT NL4-3, Table 1), 118.37 fold; in [5] (T20-V13 relative to WT NL4-3, Table 1), 107.32 fold; in assay [6] (T20-V10 relative to WT NL4-3, Table 1) it was 204.88 fold. Besides, the “Fold change in IC50” value in assay [7] (LP40-V14 relative to WT NL4-3, Table 1) is on record as above 227.43 fold; in [8] (WT NL4-3 reference, Table 1), 1.00 fold; in [9] (LP40-V2 relative to WT NL4-3, Table 1) it was 12.59 fold; in [10] (Table 2), 0.93 fold; in assay [10] (Table 3), 1.08 fold. Besides, in the assay with NL4-3D36G virus, the “Improvement of antiviral IC50 compared to T20” value is reported as “approximately seven-fold”.

Take Enfuvirtide: the IC50 in assay [1] was found to be 1150 ± 137 nM; in assay [2] it was 57.7 ± 7.23 nM; in [3], 4430 ± 967 nM; in assay [4], 3850 ± 516 nM; in assay [5], 4010 ± 571 nM; in [6], 3340 ± 433 nM. This compound also returned an IC50 in [7] of 4910 ± 2000 nM.

The values above are taken from publication PMC9223764, “In Vitro Selection and Characterization of HIV-1 Variants with Increased Resistance to LP-40, Enfuvirtide-Based Lipopeptide Inhibitor” (International Journal of Molecular Sciences, 2022).
